29 compounds from ChEMBL document CHEMBL4483862, “Open-source discovery of chemical leads for next-generation chemoprotective antimalarials” (2018) can be followed below.

The test deals with Plasmodium berghei. The test can be described thus: Luciferase/luciferin-expressing antifolate-resistant parasites were used to infect a culture of HepG2 cells that were pre-incubated with compounds. Infected hepatocytes emit light due to the luciferase reaction. Assay results are presented as the percent inhibition of light emission compared to control. […]. It is filed as functional. The settings on record: sporozoite; for IC90: read-out: LUCIFERASE INFECTION ASSAY - IC90.

Molecules are shown by their SMILES.

Turning to `COCCCNc1nnc(Cc2ccc(Cl)cc2)c(O)n1`, the IC90 (usually the concentration at which the effect reaches the 90% level) was above 10.7 µM. For the setting “HEPG2TOX_HILL_SLOPE 2.55, HEPG2TOX_R_SQUARED 0.699, PBLUC_HILL_SLOPE 0.604, PBLUC_R_SQUARED 0.236, read-out: LUCIFERASE INFECTION ASSAY - IC50”, the IC50 (in general, the concentration that inhibits the measured activity by half) stood at 6.39 µM.
Consider `NC(=O)C(C(=O)/C=C/c1ccc(Cl)cc1)=C1SCCS1`, for which the IC90 stood at 7.51 µM. In addition, the IC50 (HEPG2TOX_HILL_SLOPE 2.58, HEPG2TOX_R_SQUARED 0.837, PBLUC_HILL_SLOPE 4.23, PBLUC_R_SQUARED 0.508, read-out: LUCIFERASE INFECTION ASSAY - IC50) is 4.47 µM.
As for `COc1ccc(CCN=C(S)NC2CCN(Cc3ccccc3)CC2)cc1`, the IC90 was above 10 µM. The IC50 (HEPG2TOX_HILL_SLOPE 2.55, HEPG2TOX_R_SQUARED 0.6, read-out: LUCIFERASE INFECTION ASSAY - IC50) is above 10 µM.
With `Cc1ccc(CSc2nccc(-c3c(C)nc4ccccn34)n2)cc1`, the IC90 is above 9.53 µM. For the same compound, the IC50 (HEPG2TOX_HILL_SLOPE 2.56, HEPG2TOX_R_SQUARED 0.969, PBLUC_HILL_SLOPE 4.1, PBLUC_R_SQUARED 0.204, read-out: LUCIFERASE INFECTION ASSAY - IC50) was found to be 6.17 µM.
Turning to `COCCNc1nc(Nc2ccc(C)cc2C)c2sccc2n1`, the 90% effect concentration (IC90) is above 10 µM. Also, the IC50 (HEPG2TOX_HILL_SLOPE 2.54, HEPG2TOX_R_SQUARED 0.987, PBLUC_HILL_SLOPE 3.36, PBLUC_R_SQUARED 0.0445, read-out: LUCIFERASE INFECTION ASSAY - IC50) is above 10 µM.
On to `N#C/C(=N/Nc1ccc(OC(F)(F)F)cc1)C(N)=S`, for which the 90% effect concentration (IC90) was 4.35 µM. Further, where the note is “HEPG2TOX_HILL_SLOPE 2.59, HEPG2TOX_R_SQUARED 0.943, PBLUC_HILL_SLOPE 11.1, PBLUC_R_SQUARED 0.624, read-out: LUCIFERASE INFECTION ASSAY - IC50”, the IC50 is 3.57 µM.
With `Cc1nn(C(C)(C)C)c2c1C(c1ccc3c(c1)OCO3)C1C(=O)CC(C)(C)CC1=N2` (stereo not drawn), the 90% effect concentration (IC90) was above 10 µM. Further, the IC50 (HEPG2TOX_HILL_SLOPE 2.55, HEPG2TOX_R_SQUARED 0.436, read-out: LUCIFERASE INFECTION ASSAY - IC50) is above 10 µM.
`O=C1C=C(NCc2ccccc2)CC(c2ccc(Cl)cc2)C1` (stereo not drawn): the concentration for an effect of 90% (IC90) is above 10.6 µM. Further, the 50% inhibitory concentration (IC50) (HEPG2TOX_HILL_SLOPE 2.56, HEPG2TOX_R_SQUARED 0.714, PBLUC_HILL_SLOPE 1.97, PBLUC_R_SQUARED 0.212, read-out: LUCIFERASE INFECTION ASSAY - IC50) was determined as 6.81 µM.
Turning to `Oc1c(-c2cc(C(F)(F)F)[nH]n2)ccc2ccccc12`, the concentration for an effect of 90% (IC90) is 4.29 µM. In addition, where the note is “HEPG2TOX_HILL_SLOPE 2.58, HEPG2TOX_R_SQUARED 0.339, PBLUC_HILL_SLOPE 10.9, PBLUC_R_SQUARED 0.613, read-out: LUCIFERASE INFECTION ASSAY - IC50”, the concentration for half-maximal inhibition (IC50) came to 3.51 µM.
On to `C=CCN(c1ccccc1OC)S(=O)(=O)c1ccc(Cl)c(C(=O)Nc2nc3ccccc3[nH]2)c1`, for which the IC90 was above 10 µM. In addition, the IC50 (HEPG2TOX_HILL_SLOPE 2.58, HEPG2TOX_R_SQUARED 0.695, PBLUC_HILL_SLOPE 1.17, PBLUC_R_SQUARED 0.361, read-out: LUCIFERASE INFECTION ASSAY - IC50) amounted to 2.23 µM.
For `Cc1ccc(-c2nn(-c3ncc(Cl)cc3Cl)c(=O)c3ccccc23)cc1`, the 90% effect concentration (IC90) was above 10 µM. For the same compound, the IC50 (HEPG2TOX_HILL_SLOPE 2.58, HEPG2TOX_R_SQUARED 0.712, read-out: LUCIFERASE INFECTION ASSAY - IC50) is above 10 µM.
In the case of `O=C(NNC(=O)c1cnc2ccccc2n1)c1ccccc1`, the IC90 was found to be 9.09 µM. Further, the IC50 (HEPG2TOX_HILL_SLOPE 2.59, HEPG2TOX_R_SQUARED 0.855, PBLUC_HILL_SLOPE 4.42, PBLUC_R_SQUARED 0.625, read-out: LUCIFERASE INFECTION ASSAY - IC50) came to 5.53 µM.
For `Cc1ccc(F)cc1NS(=O)(=O)c1ccc(-n2ncc(Cl)c(Cl)c2=O)cc1`, the IC90 was 6.47 µM. The concentration for half-maximal inhibition (IC50) (HEPG2TOX_HILL_SLOPE 2.56, 7.18, HEPG2TOX_R_SQUARED 0.970, 0.512, PBLUC_HILL_SLOPE 2.23, 0.224, PBLUC_R_SQUARED 0.767, 0.129, read-out: LUCIFERASE INFECTION ASSAY - IC50) was determined as 2.08 µM.
Consider `COc1ccc(NC(=O)c2cc(N(C)Cc3ccccc3)ncn2)cn1`, for which the 90% effect concentration (IC90) was determined as 7.26 µM. For the same compound, the IC50 (HEPG2TOX_HILL_SLOPE 2.56, HEPG2TOX_R_SQUARED 0.944, PBLUC_HILL_SLOPE 1.8, PBLUC_R_SQUARED 0.498, read-out: LUCIFERASE INFECTION ASSAY - IC50) came out at 2.14 µM.
Regarding `Cc1ccc(S(=O)(=O)NN(C)c2nc3ccccc3nc2C(F)(F)F)cc1`, the IC90 came out at 3.01 µM. Besides, where the note is “HEPG2TOX_HILL_SLOPE 2.57, HEPG2TOX_R_SQUARED 0.987, PBLUC_HILL_SLOPE 18.2, PBLUC_R_SQUARED 0.483, read-out: LUCIFERASE INFECTION ASSAY - IC50”, the 50% inhibitory concentration (IC50) worked out at 2.66 µM.
Regarding `O=C(c1c[nH]c(-c2ccnc(N3CCCC3)c2)c1)c1ccccc1O`, the IC90 amounted to 7.71 µM. Further, the IC50 (HEPG2TOX_HILL_SLOPE 2.58, 1.58, HEPG2TOX_R_SQUARED 0.907, 0.987, PBLUC_HILL_SLOPE 3.48, 1.53, PBLUC_R_SQUARED 0.289, 0.786, read-out: LUCIFERASE INFECTION ASSAY - IC50) was 3.06 µM.
As to `CC(Sc1nnc(/C=C/c2ccc(F)cc2)[nH]1)C(=O)N(Cc1ccccc1)Cc1ccccc1` (stereo not drawn), the IC90 is 3.74 µM. For the same compound, the half-inhibitory concentration (IC50) (HEPG2TOX_HILL_SLOPE 2.54, HEPG2TOX_R_SQUARED 0.989, PBLUC_HILL_SLOPE 16.4, PBLUC_R_SQUARED 0.588, read-out: LUCIFERASE INFECTION ASSAY - IC50) is 3.27 µM.
Regarding `Cc1ccccc1-c1cn2c(-c3cccc(O)c3)cnc2cn1`, the concentration for an effect of 90% (IC90) is 8.68 µM. Further, the IC50 (HEPG2TOX_HILL_SLOPE 2.6, HEPG2TOX_R_SQUARED 0.936, PBLUC_HILL_SLOPE 3.74, PBLUC_R_SQUARED 0.417, read-out: LUCIFERASE INFECTION ASSAY - IC50) was 4.82 µM.
`Cn1cc(C(=O)Nc2ccc(-c3nc4ccccc4[nH]3)cc2)c(-c2ccc3c(c2)OCCCO3)n1`: the IC90 is 4.31 µM. For the same compound, under “HEPG2TOX_HILL_SLOPE 2.56, HEPG2TOX_R_SQUARED 0.953, PBLUC_HILL_SLOPE 7.83, PBLUC_R_SQUARED 0.745, read-out: LUCIFERASE INFECTION ASSAY - IC50”, the IC50 was 3.25 µM.
In the case of `COc1ccc(CN2CCN(c3ncc(C(=O)Nc4ccc5c(c4)OCO5)s3)C2=O)cc1`, the IC90 stood at 4.14 µM. Moreover, the IC50 (HEPG2TOX_HILL_SLOPE 2.58, HEPG2TOX_R_SQUARED 0.97, PBLUC_HILL_SLOPE 17.4, PBLUC_R_SQUARED 0.0851, read-out: LUCIFERASE INFECTION ASSAY - IC50) was found to be 3.65 µM.
With `O=C(NNc1ccc(I)cc1)c1cc(Cl)cc(Cl)c1`, the concentration for an effect of 90% (IC90) is 2.86 µM. Moreover, the IC50 (HEPG2TOX_HILL_SLOPE 2.56, HEPG2TOX_R_SQUARED 0.673, PBLUC_HILL_SLOPE 20.4, PBLUC_R_SQUARED 0.213, read-out: LUCIFERASE INFECTION ASSAY - IC50) is 2.56 µM.
On to `O=S(=O)(Nc1cc(C(F)(F)F)cc(C(F)(F)F)c1)c1cc(Cl)ccc1Cl`, for which the concentration for an effect of 90% (IC90) is above 7.53 µM. Moreover, under “HEPG2TOX_HILL_SLOPE 2.59, HEPG2TOX_R_SQUARED 0.793, PBLUC_HILL_SLOPE 6.41, PBLUC_R_SQUARED 0.152, read-out: LUCIFERASE INFECTION ASSAY - IC50”, the IC50 worked out at 6.18 µM.
Turning to `COc1ccc(CNc2ccc3ncc(-c4ccc(OC)c(OC)c4)n3n2)cc1`, the 90% effect concentration (IC90) is 4.78 µM. For the same compound, the 50% inhibitory concentration (IC50) (HEPG2TOX_HILL_SLOPE 2.6, HEPG2TOX_R_SQUARED 0.69, PBLUC_HILL_SLOPE 12.3, PBLUC_R_SQUARED 0.459, read-out: LUCIFERASE INFECTION ASSAY - IC50) worked out at 4 µM.
Take `c1ccc(-n2ncc3c(N4CCCC4c4ccc5c(c4)OCCO5)ncnc32)cc1` (stereo not drawn): the 90% effect concentration (IC90) is above 10 µM. Also, the 50% inhibitory concentration (IC50) (HEPG2TOX_HILL_SLOPE 2.6, HEPG2TOX_R_SQUARED 0.193, PBLUC_HILL_SLOPE 3.44, PBLUC_R_SQUARED 0.735, read-out: LUCIFERASE INFECTION ASSAY - IC50) turned out to be 7.29 µM.
With `O=C(Nc1ccc(-c2nc3ccccc3[nH]2)cc1)c1cccc(S(=O)(=O)NC2CC2)c1`, the concentration for an effect of 90% (IC90) came out at 3 µM. Besides, the IC50 (HEPG2TOX_HILL_SLOPE 2.58, HEPG2TOX_R_SQUARED 0.64, PBLUC_HILL_SLOPE 5.30, 5.83, PBLUC_R_SQUARED 0.508, 0.438, read-out: LUCIFERASE INFECTION ASSAY - IC50) was found to be 2.03 µM.
For the compound `CCCCc1ccc2nc(NC(=O)c3cccnc3-n3cncn3)sc2c1`, the concentration for an effect of 90% (IC90) was above 10 µM. The IC50 (HEPG2TOX_HILL_SLOPE 2.58, HEPG2TOX_R_SQUARED 0.943, PBLUC_HILL_SLOPE 1.45, PBLUC_R_SQUARED 0.435, read-out: LUCIFERASE INFECTION ASSAY - IC50) worked out at 4 µM.
For the compound `CCOC(=O)c1c(C)[nH]c(C(=O)COC(=O)Cn2[nH]c(=O)c3ccccc3c2=O)c1C`, the IC90 is above 10 µM. Moreover, the half-inhibitory concentration (IC50) (HEPG2TOX_HILL_SLOPE 2.60, 1.21, HEPG2TOX_R_SQUARED 0.645, 0.988, read-out: LUCIFERASE INFECTION ASSAY - IC50) is above 10 µM.
`COc1ccc(-c2cc(=O)n3nc(C)c(-c4ccc(F)cc4)c3[nH]2)cc1`: the IC90 was 3.24 µM. For the same compound, the 50% inhibitory concentration (IC50) (HEPG2TOX_HILL_SLOPE 2.56, HEPG2TOX_R_SQUARED 0.662, PBLUC_HILL_SLOPE 58.3, PBLUC_R_SQUARED 0.0989, read-out: LUCIFERASE INFECTION ASSAY - IC50) was 3.12 µM.
In the case of `c1cncc(CCNc2nccn3c(-c4ccc5ccccc5c4)cnc23)c1`, the concentration for an effect of 90% (IC90) was found to be 5.14 µM. Further, the half-inhibitory concentration (IC50) (HEPG2TOX_HILL_SLOPE 2.6, HEPG2TOX_R_SQUARED 0.953, PBLUC_HILL_SLOPE 75.6, PBLUC_R_SQUARED 0.403, read-out: LUCIFERASE INFECTION ASSAY - IC50) turned out to be 4.99 µM.
